Source: patent publication US7718614B2 (Kurume University, priority 2003, dated 2010)
Where “and” joins values, the source holds several entries; their conditions need not be identical. Equal entries are not always repeated. Entries after “also recorded” stand apart in the source; their conditions may differ.

How the values were obtained:
peptide-specific IgG [1] = test: ELISA of serum anti-peptide IgG, Example 2; format: in vivo, human; design: key: −: absent; +: present, low titer; ++: present, high titer; details: serum of the individual patient; for Anti-peptide IgG, Pre: pre-vaccination; for Anti-peptide IgG, 6th: after 6th vaccination
Protocol: Peptide-specific CTL precursors in PBMCs were detected using a previously reported culture method, while an ELISA was used to detect the serum IgG levels specific for the peptides administrated, as reported previously. In addition, a new monitoring method was conducted to carefully measure the estramustine-induced immunosuppression. Namely, PBMCs were harvested every 2 weeks and were cultured (10^4 cells/well) for 2 days in triplicate assays with […] of phytohemagglutinin (PHA), 10 ng/ml of Epstein-Bar virus (EBV)-derived peptide with HLA-A24 or -A2 binding motif, and 10 ng/ml of two different peptides under vaccination. After 2 days in culture, the amounts of IFN-γ in cell free supernatants were measured in triplicate assays, and viable cell numbers were also counted. To avoid biases in each assay, all the PBMCs were once cryopreserved and the four different PBMCs (two from healthy donors, one from patients PBMCs harvested 2 weeks before the latest vaccination, and one from the latest vaccination) were thawed at the same time in the morning of the experiment. The PBMCs from healthy donors were from the same donors throughout the series of immunological monitoring. Responses (IFN-γ production) to PHA, EBV-peptide, and the vaccinated peptides were considered to be mediated by resting T cells, memory T cells, and activated T cells, respectively.
Except for the following points, substantially the same approach was employed as Example 1.

[2] = test system: peptide-specific CTL precursors in PBMCs; test: Peptide-specific CTL precursor assay (IFN-γ production of peptide-stimulated PBMCs), Example 1; format: cell-based, human; design: key to Cellular response to peptide during the combination therapy, 12th / Cellular response to peptide during the combination therapy, 6th / Cellular response to peptide during the combination therapy, Pre: Ar: p* ≦ 0.1 and 500 ≦ net**; A: p ≦ 0.05 and 50 ≦ net; B: p ≦ 0.05 and 25 ≦ net < 50; C: 0.05 < p < 0.1 and 50 ≦ net; AAAA: all four wells of quadruplicate assay were positive; AAA: three wells of quadruplicate assay were positive; AA: two wells of quadruplicate assay were positive; details: PBMCs of the individual case; for Cellular response to peptide during the combination therapy, 6th: after 6th vaccination; for Cellular response to peptide during the combination therapy, 12th: after 12th vaccination; for Cellular response to peptide during the combination therapy, 18th: after 18th vaccination; for Cellular response to peptide during the combination therapy, Pre: before combination therapy, grade of each positive well of quadruplicate IFN-γ assay;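 as to all read-outs here: PBMCs cultured with each peptide at 10 µM, restimulated at 20 µM every 3 days up to 12 days, then 18 hr with peptide-pulsed target cells, IFN-γ by ELISA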
Protocol: Before the first vaccination and 7 days after every 6th vaccination, 30 ml of peripheral blood was obtained, and PBMCs were isolated by means of Ficoll-Conray density gradient centrifugation. Peptide-specific CTL precursors in PBMCs were detected using a previously reported culture method [24]. Briefly, PBMCs (1×10^5 cells/well) were incubated with 10 μM of each peptide in U-bottom-type 96-well microculture plates (Nunc, Roskilde, Denmark) in 200 μl of culture medium. The culture medium contained 45% RPMI-1640 medium, 45% AIM-V™ medium (Invitrogen Corp., Carlsbad, Calif.), 10% FCS, 100 U/ml of interleukin-2 (IL-2) and 0.1 mM MEM nonessential amino acid solution (Invitrogen Corp.). Half of the medium was removed and replaced with the new medium containing a corresponding peptide (20 μM) every 3 days for up to 12 days. […] The target cells (C1R-A2402 or T2, 1×10^4/well) were pulsed with each peptide (10 μM) for 2 hr, and then effector cells (1×10^5/well) were added to each well with the final volume of 200 μl. After incubation for 18 hr, the supernatants (100 μl) were collected, and the amounts of IFN-γ were measured using an enzyme-linked immuno-sorbent assay (ELISA) (limit of sensitivity: 10 pg/ml). All experiments were performed in the four different wells with duplicate assays. […] Peptides were chosen based upon evaluation of all 4 wells by the order shown above.
Peptide-specific CTL precursors in PBMCs were detected using a previously reported culture method [24], while an ELISA was used to detect the serum IgG levels specific for the peptides administrated, as reported previously [13-15]. […] Namely, PBMCs were harvested every 2 weeks and were cultured (10^4 cells/well) for 2 days in triplicate assays with 10 μl M of phytohemagglutinin (PHA), 10 ng/ml of Epstein-Bar virus (EBV)-derived peptide with HLA-A24 or -A2 binding motif, and 10 ng/ml of two different peptides under vaccination. After 2 days in culture, the amounts of IFN-γ in cell free supernatants were measured in triplicate assays, and viable cell numbers were also counted. To avoid biases in each assay, all the PBMCs were once cryopreserved and the four different PBMCs (two from healthy donors, one from patients PBMCs harvested 2 weeks before the latest vaccination, and one from the latest vaccination) were thawed at the same time in the morning of the experiment. The PBMCs from healthy donors were from the same donors throughout the series of immunological monitoring. Responses (IFN-γ production) to PHA, EBV-peptide, and the vaccinated peptides were considered to be mediated by resting T cells, memory T cells, and activated T cells, respectively.

[3] = test system: peptide-specific CTL precursors in PBMCs; test: Peptide-specific CTL precursor assay (IFN-γ production), Example 2; format: cell-based, human; details: for Cellular response to peptide, Pre (mean specific IFN-γ production): pre-vaccination PBMCs of the individual patient, response to HIV peptide subtracted; for Cellular response to peptide, 6th (mean specific IFN-γ production): post(6th)-vaccination PBMCs of the individual patient, * p ≦ 0.05, ** p ≦ 0.10 increased versus pre
Protocol: Before the first vaccination and 7 days after every 6th vaccination, 30 ml of peripheral blood was obtained, and PBMCs were isolated by means of Ficoll-Conray density gradient centrifugation. Peptide-specific CTL precursors in PBMCs were detected using a previously reported culture method [24]. Briefly, PBMCs (1×10^5 cells/well) were incubated with 10 μM of each peptide in U-bottom-type 96-well microculture plates (Nunc, Roskilde, Denmark) in 200 μl of culture medium. The culture medium contained 45% RPMI-1640 medium, 45% AIM-V™ medium (Invitrogen Corp., Carlsbad, Calif.), 10% FCS, 100 U/ml of interleukin-2 (IL-2) and 0.1 mM MEM nonessential amino acid solution (Invitrogen Corp.). Half of the medium was removed and replaced with the new medium containing a corresponding peptide (20 μM) every 3 days for up to 12 days. […] The target cells (C1R-A2402 or T2, 1×10^4/well) were pulsed with each peptide (10 μM) for 2 hr, and then effector cells (1×10^5/well) were added to each well with the final volume of 200 μl. After incubation for 18 hr, the supernatants (100 μl) were collected, and the amounts of IFN-γ were measured using an enzyme-linked immuno-sorbent assay (ELISA) (limit of sensitivity: 10 pg/ml). All experiments were performed in the four different wells with duplicate assays.
All patients were vaccinated with up to 4 peptides selected from the 16 candidates by pre-vaccination measurements.

peptide-specific IgG [4] = test: ELISA of serum IgG specific for the administered peptides, Example 1; format: in vivo, human; design: key: −: absent; +: present, low titer; ++: present, high titer; details: serum of the individual case; for Anti-peptide IgG during the combination therapy, 6th: after 6th vaccination; for Anti-peptide IgG during the combination therapy, 12th: after 12th vaccination; for Anti-peptide IgG during the combination therapy, 18th: after 18th vaccination; for Anti-peptide IgG during the combination therapy, Pre: before combination therapy

Row | Sequence | Anti-peptide IgG, Pre (peptide-specific IgG [1]) | Cellular response to peptide during the combination therapy, 6th [2] | Cellular response to peptide during the combination therapy, 12th [2] | Cellular response to peptide during the combination therapy, 18th [2] | Cellular response to peptide during the combination therapy, Pre [2] | Cellular response to peptide, Pre (mean specific IFN-γ production) [3] | Anti-peptide IgG during the combination therapy, 6th (peptide-specific IgG [4]) | Anti-peptide IgG during the combination therapy, 12th (peptide-specific IgG [4]) | Anti-peptide IgG during the combination therapy, 18th (peptide-specific IgG [4]) | Anti-peptide IgG during the combination therapy, Pre (peptide-specific IgG [4]) | Anti-peptide IgG, 6th (peptide-specific IgG [1]) | Cellular response to peptide, 6th (mean specific IFN-γ production) [3]
1 | AYDFLYNYL [SART 2161-169] | + | Ar (p* ≦ 0.1 and 500 ≦ net**) | B (p ≦ 0.05 and 25 ≦ net < 50) and AAC | ArA and ArArAA | A (p ≦ 0.05 and 50 ≦ net) | 0 pg/mL | − | − | − | − |  | 
2 | AYIDFEMKI [SART 3315-323] | − (4×) and + (2×) | A (p ≦ 0.05 and 50 ≦ net) | Ar (p* ≦ 0.1 and 500 ≦ net**) | ArArArB |  | 47.8 pg/mL and 4 pg/mL and 0 pg/mL and 112.3 pg/mL and 44.8 pg/mL and 15 pg/mL | − and + | − | − | − and + | + (2×) and − (3×) | 39.3 pg/ml and 12.8 pg/ml and 154** pg/ml and 26.5 pg/ml and 255 pg/ml
3 | CYASGWGSI [PSA152] | − (3×) and + (2×) |  |  |  |  | 34.5 pg/mL and 39.5 pg/mL and 250 pg/mL and 49.3 pg/mL and 168.8 pg/mL |  |  |  |  | − (4×) and + | 34.8 pg/ml and 0 pg/ml (2×) and 18.8 pg/ml and 15.5 pg/ml
4 | DYLRSVLEDF [lck488-497] | + (3×) and − | ABB |  |  | C (0.05 < p < 0.1 and 50 ≦ net) and B (p ≦ 0.05 and 25 ≦ net < 50) and ArAB | 29.8 pg/mL and 36.5 pg/mL and 31.8 pg/mL and 30.5 pg/mL | − (3×) and + | − (2×) and + | + (2×) and − | − | − | 99 pg/mL and 26.8 pg/mL and 26.5 pg/mL and 19.8 pg/mL
5 | DYSARWNEI [SART 293-101] | + (2×) and − |  |  |  | C (0.05 < p < 0.1 and 50 ≦ net) | 22.8 pg/mL and 125 pg/mL and 57.3 pg/mL | − | − | − | − | + and − (2×) | 376.8 pg/ml and 162.5 pg/ml and 228.5** pg/ml
6 | EYRGFTQDF [SART1 690] | + and − (2×) |  |  |  |  | 0 pg/mL and 250 pg/mL and 449 pg/mL |  |  |  |  | + (2×) and − | 0 pg/mL and 81.8 pg/mL and 35 pg/mL
7 | HYRKWIKDTI [PSA248] | + (12×) and − (2×) |  |  |  |  | 19.5 pg/ml and 28.3 pg/ml and 12.8 pg/ml and 14.3 pg/ml and 6.5 pg/ml and 18.5 pg/ml and 0 pg/ml (2×) and 375 pg/ml and 17 pg/ml and 250 pg/ml and 18 pg/ml and 32.8 pg/ml and 23.8 pg/ml |  |  |  |  | + (8×) and ++ (4×) | 100 pg/ml and 505.8 pg/ml and 303.5 pg/ml and 149.8 pg/ml and 0 pg/ml (4×) and 9.3 pg/ml and 21.3 pg/ml and 38.8 pg/ml and 243.5 pg/ml and 9.8 pg/ml
8 | HYTNASDGL [lck208-216] | − (2×) and + | AA |  |  | A (p ≦ 0.05 and 50 ≦ net) | 34.8 pg/mL and 5.8 pg/mL and 26.3 pg/mL | − | − | − and + | − | − | 0 pg/mL and 676 pg/mL and 58.8 pg/mL
9 | LYCESVHNF [PAP213] | + (6×) and − (5×) |  |  |  |  | 0 pg/ml (3×) and 30.8 pg/ml and 5.8 pg/ml and 375 pg/ml and 250 pg/ml and 28.8 pg/ml and 80 pg/ml and 14.3 pg/ml and 33.8 pg/ml |  |  |  |  | ++ and + (5×) and − (4×) | 46.8 pg/ml and 850* pg/ml and 0 pg/ml and 186.8** pg/ml and 36.5 pg/ml and 153.5 pg/ml and 622.3* pg/ml and 9.5 pg/ml and 324.3** pg/ml and 32 pg/ml and 392.3* pg/ml
10 | NVLHFFNAPL [HNRPL501-510] |  | AAA and ArArArAr | ArArAc; also recorded: ArArAr | ArA | A (p ≦ 0.05 and 50 ≦ net) and ArAr |  | ++ and − (2×) and + | ++ (2×) and − | + | − (3×) and + |  | 
11 | RIIYDRKFL [EIF4EBP151-59] |  |  | A (p ≦ 0.05 and 50 ≦ net) | B (p ≦ 0.05 and 25 ≦ net < 50) |  |  | − and ++ | − and ++ | + | − and + |  | 
12 | RLAEYQAYI [SART 3309-317] |  | Ar (p* ≦ 0.1 and 500 ≦ net**) | Ar (p* ≦ 0.1 and 500 ≦ net**) | ArAC | A (p ≦ 0.05 and 50 ≦ net) |  | − | − | + | − |  | 
13 | RLQEWCSVI [UBE2V43-51] |  | ACC and AA | ArArArA; also recorded: A (p ≦ 0.05 and 50 ≦ net); also recorded: C (0.05 < p < 0.1 and 50 ≦ net) |  | AAA and AAAB and ArA |  | ++ (3×) and + | ++ |  | ++ and − (2×) and + |  | 
14 | SYTRLFLIL [SART 2899-907] |  |  |  | A (p ≦ 0.05 and 50 ≦ net) | A (p ≦ 0.05 and 50 ≦ net) |  | − | − | − | − |  | 
15 | TFDYLRSVL [lck486] | − |  |  |  |  | 375 pg/mL |  |  |  |  | + | 58.5 pg/mL
16 | TYSVSFDSL [PSM624] | + |  |  |  |  | 100 pg/mL |  |  |  |  | + | 167 pg/mL
17 | VLEGMEVV [CypB172-179] |  |  | A (p ≦ 0.05 and 50 ≦ net) | B (p ≦ 0.05 and 25 ≦ net < 50); also recorded: A (p ≦ 0.05 and 50 ≦ net) | A (p ≦ 0.05 and 50 ≦ net) |  | + | + | + | − (2×) and + |  | 
